A word on the DC50: it is the concentration at which degradation of the target reaches its halfway point.

This is an account of results in US12161722B2, “Bifunctional heterocyclic compound having BTK degradation function via ubiquitin proteasome pathway, and use thereof” (KOREA RESEARCH INSTITUTE OF CHEMICAL TECHNOLOGY, priority 2021, dated 2024).

One test concerns the target T1, WT BTK protein (Homo sapiens, UniProt Q06187).
T1 construct: measured for intracellular BTK protein levels by Western blotting; endogenous in cells; host or cells: TMD-8 or RAMOS cells
Briefly: BTK protein degradation assay (Western blotting), WT BTK. The test is classed as cell-based. Particulars: concentration range accounting for 50% degradation of WT BTK protein, TMD-8 or RAMOS cells, 24 hours. The procedure, abridged:
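TMD-8 cells (1×10^6 cells/mL) treated 24 h with compound serial dilutions, then lysed in RIPA. Equal protein loads analysed by Western blot for BTK with GAPDH/β-actin as loading controls; activity binned by concentration giving 50% WT BTK degradation.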
For orientation: In western blotting, separated proteins are transferred to a membrane and probed.

A further test has as its target T2, C481S BTK protein (Homo sapiens, UniProt Q06187, C481S).
T2 construct: expressed in transfected cells; host or cells: 293T BTK MUT (C481S) cells
Briefly: BTK protein degradation assay (Western blotting), C481S BTK. The test is classed as cell-based. Particulars: concentration range accounting for 50% degradation of C481S BTK protein, 293T BTK MUT (C481S) cells. The procedure: TMD-8, RAMOS, or 293T BTK MUT (C481S) cells were treated with the synthesized compounds and measured for intracellular BTK protein levels by Western blotting. The protocol of the experiment using TMD-8 cells is as follows.
The 12-well plates were treated as follows. A 10 mM stock was 1/10 diluted in series with DMSO ([…]) to form final concentrations of 10, 1, 0.1, 0.01, 0.001, and 0.0001 mM. The compounds with such concentrations were applied to cells, followed by harvesting the cells 24 hours later. For a negative control, a 1/10 dilution of DMSO in the medium (3 mL DMSO+27 mL medium) was used.
The 1-mL cell culture in each well was passed many times through a pipette and then transferred into a 1.5-mL microtube before centrifugation (500 g, 5 min, 4° C.). The supernatant was discarded and the cell pellet was washed with PBS. After centrifugation (500 g, 5 min, 4° C.) again, the supernatant was discarded and the cell pellet was taken.
A lysis buffer was prepared as follows. RIPA buffer (Biosesang, RC2038-050-00)+0.5 mM PMSF (SIGMA, P7626)+1×Protease/Phosphatase Inhibitor (Cell signaling, 5872S) was added in an amount […] per well and left for 30 minutes on ice (vortexing at 0 and 30 minutes) before sonication (5 cycles of pulse for 10 seconds and rest for 30 seconds, 70% amplification). The supernatant obtained by centrifugation (15000 g, 15 min, 4° C.) was transferred into a new microtube. Cells in each well of 96-well plates were 1/2 diluted with the RIPA buffer and incubated at 37° C. for 30 minutes with […] of a 50:1 mixture of BCA reagents A and B in BCA Protein Assay Kit (iNtRON, 21071). After being cooled for 10 minutes, the 96-well plates were measured for absorbance at 562 nm on the BioTek, SYNERGY H1 microplate reader. Samples were prepared by protein quantification based on the absorbance measurements and then boiled at 70° C. for 10 minutes. The sample buffer used in the case was prepared by mixing a NuPAGE or a Bolt 4× sample buffer (Invitrogen) and its 10× sample reducing agent depending on the gel to be used, and protein dilution was made in a RIPI buffer.
The samples were loaded in the same amount into a NuPAGE or Bolt Bis-tris 4-12% gradient gel and allowed to run therein (200 V, 35 minutes). The separated proteins were transferred onto a […] NC membrane, using Trans-blot Turbo (BIO-RAD) (1.3 A constant, 25V limit, 15 minutes). The membrane was blocked at room temperature for 1 hour with skim milk or Intercept Blocking Buffer (LI-COR, 927-60001):0.1% TBST=1:1. The membrane was incubated with Anti BTK Rabbit (1:1,000 in 5% skim milk/0.2% TBST, size: 77 kDa, Cell signaling Technology) at 4° C. overnight O/N or at room temperature for 2 hours and with Anti GAPDH Rabbit (1:10,000 in 5% BSA/0.2% TBST, size: 36 kDa, GENETEX) and Anti β-actin mouse (1:10,000 in 5% BSA/0.2% TBST, RT, size: 43 kDa, GENETEX) at room temperature for 1 or 3 hours. Then, the membrane was washed three times with 0.5% TBST for 5 minutes each time before incubation with the second antibody Anti-Rabbit IgG (1:5,000 in 5% Skim milk/TBST, CST), IRDye® 800CW Goat anti-Rabbit IgG Secondary Antibody (1:10,000 in 5% skim/TBST, RT 45 min), or IRDye® 680RD Goat anti-Mouse IgG Secondary Antibody (1:10,000 in 5% skim/TBST, RT 45 min) for 45 minutes at room temperature in a rocker. The membrane was washed five times with 0.5% TBST for 5 minutes in each time, followed by detection with LI-COR, Odyssey. In this regard, the detection proceeded, as it was, for house-keeping genes while using SuperSignal West Pico PLUS Chemiluminescent Substrate or SuperSignal West femto Maximum Sensitivity Substrate for BTK detection.
According to the concentration ranges of compounds accounting for 50% degradation of WT BTK protein and C481S BTK protein, the activities are expressed as +++(0.0001-0.01 μM), ++(0.01-1 μM), +(1-10 μM), −(>10 μM), and NT (not tested). […]

T2 sequence (Q06187 whole entry C481S): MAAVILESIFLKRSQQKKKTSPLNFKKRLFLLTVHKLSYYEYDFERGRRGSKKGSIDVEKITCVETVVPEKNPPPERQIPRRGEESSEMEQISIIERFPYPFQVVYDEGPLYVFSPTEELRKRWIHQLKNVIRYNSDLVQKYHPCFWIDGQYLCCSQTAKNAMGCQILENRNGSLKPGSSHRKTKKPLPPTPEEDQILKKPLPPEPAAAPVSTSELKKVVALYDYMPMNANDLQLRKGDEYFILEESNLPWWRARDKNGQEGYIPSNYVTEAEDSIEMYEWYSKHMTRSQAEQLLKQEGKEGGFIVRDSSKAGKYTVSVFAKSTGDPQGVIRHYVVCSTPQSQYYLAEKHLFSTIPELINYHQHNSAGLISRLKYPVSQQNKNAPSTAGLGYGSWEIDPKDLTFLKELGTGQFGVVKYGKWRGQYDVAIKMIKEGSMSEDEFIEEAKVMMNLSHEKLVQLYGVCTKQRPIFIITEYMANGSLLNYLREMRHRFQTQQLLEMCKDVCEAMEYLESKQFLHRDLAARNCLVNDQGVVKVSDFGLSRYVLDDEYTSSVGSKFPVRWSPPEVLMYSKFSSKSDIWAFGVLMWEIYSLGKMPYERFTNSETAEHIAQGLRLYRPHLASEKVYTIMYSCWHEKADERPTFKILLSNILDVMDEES
T1 sequence (Q06187 whole entry): as the sequence (Q06187 whole entry C481S) above, with S481C counted along it

Turning to `Cc1cccc(C)c1Nc1nn(C)c2nc(Nc3ccc4c(c3)CN(CC3CCN(C(=O)CNc5ccc6c(=O)n(C7CCC(=O)NC7=O)nnc6c5)CC3)CC4)ncc12` (stereo not drawn) [Compound 63, 3-(7-((2-(4-((7-((3-((2,6-Dimethylphenyl)amino)-1-methyl-1H-pyrazolo[3,4-d]pyrimidin-6-yl)amino)-3,4-dihydroisoquinolin-2 (1H)-yl)methyl)piperidin-1-yl)-2-oxoethyl)amino)-4-oxobenzo[d][1,2,3]triazin-3 (4H)-yl)piperidin-2,6-one], the DC50 on WT BTK protein lay within 0.1 to 10 nM; at C481S BTK protein it was 10 to 1000 nM.
On the same counts, the results for `Cc1cccc(C)c1Nc1nn(C)c2nc(Nc3ccc4c(c3)CN(CC3CCN(C(=O)C5CCN(c6cccc7nnn(C8CCC(=O)NC8=O)c(=O)c67)CC5)CC3)CC4)ncc12` (stereo not drawn) [Compound 62, 3-(5-(4-(4-((7-((3-((2,6-Dimethylphenyl)amino)-1-methyl-1H-pyrazolo[3,4-d]pyrimidin-6-yl)amino)-3,4-dihydroisoquinolin-2 (1H)-yl)methyl)piperidine-1-carbonyl)piperidin-1-yl)-4-oxobenzo[d][1,2,3]triazin-3 (4H)-yl)piperidin-2,6-one] are 0.1 to 10 nM and 10 to 1000 nM.
As to `Cc1cccc(C)c1Nc1nn(C)c2nc(Nc3ccc4c(c3)CN(CC3CCN(Cc5ccc6nnn(C7CCC(=O)NC7=O)c(=O)c6c5)CC3)CC4)ncc12` (stereo not drawn) [Compound 46], the DC50 on WT BTK protein and at C481S BTK protein was 10 to 1000 nM each time.
On to `Cc1cccc(C)c1Nc1nn(C)c2nc(Nc3ccc4c(c3)CN(C(=O)C3CCN(C(=O)C5CCN(c6ccc7c(c6)C(=O)N(C6CCC(=O)NC6=O)C7=O)CC5)CC3)CC4)ncc12` (stereo not drawn) [Compound 54, 5-(4-(4-(7-((3-((2,6-Dimethylphenyl)amino)-1-methyl-1H-pyrazolo[3,4-d]pyrimidin-6-yl)amino)-1,2,3,4-tetrahydroisoquinoline-2-carbonyl)piperidine-1-carbonyl)piperidin-1-yl)-2-(2,6-dioxopiperidin-3-yl)isoindoline-1,3-dione], for which the DC50 at WT BTK protein fell in the range of 0.1 to 10 nM; on C481S BTK protein, 10 to 1000 nM.
On the same counts, the results for `Cc1cccc(C)c1Nc1nn(C)c2nc(Nc3ccc4c(c3)CN(C(=O)C3CCN(c5ccc6c(c5)C(=O)N(C5CCC(=O)NC5=O)C6=O)CC3)CC4)ncc12` (stereo not drawn) [Compound 56, 5-(4-(7-((3-((2,6-Dimethylphenyl)amino)-1-methyl-1H-pyrazolo[3,4-d]pyrimidin-6-yl)amino)-1,2,3,4-tetrahydroisoquinoline-2-carbonyl)piperidin-1-yl)-2-(2,6-dioxopiperidin-3-yl)isoindoline-1,3-dione] are 10 to 1000 nM and 10 to 1000 nM.
Regarding `Cc1cccc(C)c1Nc1nn(C)c2nc(Nc3ccc4c(c3)CN(CC3CCN(c5ccc6c(=O)n(C7CCC(=O)NC7=O)nnc6c5)CC3)CC4)ncc12` (stereo not drawn) [Compound 53, 3-(7-(4-((7-((3-((2,6-Dimethylphenyl)amino)-1-methyl-1H-pyrazolo[3,4-d]pyrimidin-6-yl)amino)-3,4-dihydroisoquinolin-2 (1H)-yl)methyl)piperidin-1-yl)-4-oxobenzo[d][1,2,3]triazin-3 (4H)-yl)piperidin-2,6-one], the half-maximal degradation concentration (DC50) is 0.1 to 10 nM on WT BTK protein and 10 to 1000 nM at C481S BTK protein.
Turning to `Cc1cccc(C)c1Nc1nn(C)c2nc(Nc3ccc4c(c3)CN(CCOCCNC(=O)C3CN(c5ccc6c(c5)C(=O)N(C5CCC(=O)NC5=O)C6=O)C3)CC4)ncc12` (stereo not drawn) [Compound 27, N-(2-(2-(7-((3-((2,6-Dimethylphenyl)amino)-1-methyl-1H-pyrazolo[3,4-d]pyrimidin-6-yl)amino)-3,4-dihydroisoquinolin-2 (1H)-yl)ethoxy)ethyl)-1-(2-(2,6-dioxopiperidin-3-yl)-1,3-dioxoisoindolin-5-yl)azetidine-3-carboxamide], the DC50 at WT BTK protein was in the range of 0.1 to 10 nM; on C481S BTK protein, 1000 to 10000 nM.
With `Cc1cccc(C)c1Nc1nn(C)c2nc(Nc3ccc4c(c3)CN(C(=O)COCCOCCOCCOCCNC(=O)CNc3cccc5c3C(=O)N(C3CCC(=O)NC3=O)C5=O)CC4)ncc12` (stereo not drawn) [Compound 10, N-(14-(7-((3-((2,6-Dimethylphenyl)amino)-1-methyl-1H-pyrazolo[3,4-d]pyrimidin-6-yl)amino)-3,4-dihydroisoquinolin-2 (1H)-yl)-14-oxo-3,6,9,12-tetraoxatetradecyl)-2-((2-(2,6-dioxopiperidin-3-yl)-1,3-dioxoisoindolin-4-yl)amino)acetamide], the DC50 was 10 to 1000 nM on WT BTK protein and > 10000 nM at C481S BTK protein.
In the case of `Cc1cccc(C)c1Nc1nn(C)c2nc(Nc3ccc4c(c3)CN(CC3CCN(C(=O)COc5ccc6c(c5)C(=O)N(C5CCC(=O)NC5=O)C6=O)CC3)CC4)ncc12` (stereo not drawn) [Compound 30, 5-(2-(4-((7-((3-((2,6-Dimethylphenyl)amino)-1-methyl-1H-pyrazolo[3,4-d]pyrimidin-6-yl)amino)-3,4-dihydroisoquinolin-2 (1H)-yl)methyl)piperidin-1-yl)-2-oxoethoxy)-2-(2,6-dioxopiperidin-3-yl)isoindoline-1,3-dione], the DC50 fell in the range of 0.1 to 10 nM at WT BTK protein and 10 to 1000 nM at C481S BTK protein.
`Cc1cccc(C)c1Nc1nn(C)c2nc(Nc3ccc4c(c3)CCN(CC3CCN(c5ccc6c(c5)C(=O)N(C5CCC(=O)NC5=O)C6=O)CC3)C4)ncc12` (stereo not drawn) [Compound 109, 5-(4-((6-((3-((2,6-Dimethylphenyl)amino)-1-methyl-1H-pyrazolo[3,4-d]pyrimidin-6-yl)amino)-3,4-dihydroisoquinolin-2 (1H)-yl)methyl)piperidin-1-yl)-2-(2,6-dioxopiperidin-3-yl)isoindoline-1,3-dione]: the DC50 on WT BTK protein is 10 to 1000 nM.
As for `Cc1cccc(C)c1Nc1nn(C)c2nc(Nc3ccc4c(c3)CN(CC3(O)CCN(c5ccc6c(n5)CN(C5CCC(=O)NC5=O)C6=O)CC3)CC4)ncc12` (stereo not drawn) [Compound 133, 3-(2-(4-((7-((3-((2,6-Dimethylphenyl)amino)-1-methyl-1H-pyrazolo[3,4-d]pyrimidin-6-yl)amino)-3,4-dihydroisoquinolin-2 (1H)-yl)methyl)-4-hydroxypiperidin-1-yl)-5-oxo-5,7-dihydro-6H-pyrrolo[3,4-b]pyridin-6-yl)piperidin-2,6-one], the DC50 at WT BTK protein is 0.1 to 10 nM.
`Cc1cccc(C)c1Nc1nn(C)c2nc(Nc3ccc4c(c3)CN(C(=O)Nc3ccc5c(c3)CN(C3CCC(=O)NC3=O)C5=O)CC4)ncc12` (stereo not drawn) [Compound 96, 7-((3-((2,6-dimethylphenyl)amino)-1-methyl-1H-pyrazolo[3,4-d]pyrimidin-6-yl)amino)-N-(2-(2,6-dioxopiperidin-3-yl)-1-oxoisoindolin-5-yl)-3,4-dihydroisoquinoline-2 (1H)-carboxamide]: the DC50 at WT BTK protein is 0.1 to 10 nM.
